According to patent publication US8247400B2, “Cephem compounds useful for the treatment of bacterial infections” (priority 2009, dated 2012):
Where “and” joins values, the source holds several entries; their conditions need not be identical. Equal entries are not always repeated.

What was measured:
[1] = Agar diffusion antibacterial activity; assay type: cell-based; settings: Pseudomonas aureus; for Zone of Inhibition (mm) (average of 3 plates): Compound A approx. 22 μg/disk, Gentamicin 10 mcg per disk, 30-35° C., 2 days
Method: (§1) The antibiotic activity of Compound A (as the hydrochloride salt) was tested by Agar Diffusion against the following bacterial strains: Staphylococcus aureus, Salmonella typhimurium, Escherichia coli and Pseudomonas aureus. The antibiotic activity of Compound A was compared to that observed for the antibiotic gentamicin (positive control antibiotic). 0.85% saline solution was used as a negative control. The protocol is provided below. A solution containing Compound A hydrochloride, 20 ug per disk, was added to BBL™ Sensi-Disc™. Fifteen Petri dish filled with an agar medium were prepared a day before their use. These were utilized for testing of 5 microorganisms (4 bacterial species including Staphylococcus aureus, Salmonella typhimurium, Pseudomonas aeruginosa, and Escherichia coli, and one fungus (Candida albicans). Triplicate plates were then streaked with each specific microorganism. Twelve plates to be utilized for antibacterial testing were applied with positive control and negative control discs. Positive control discs are impregnated with gentamycin and are available from Becton, Dickinson and Co (ready to be used cartridges, “BBL™ Sensi-Disc™ Antimicrobial Susceptibility Test Discs”). Negative control discs were prepared by soaking dry disks with normal saline solution. These discs were applied by means of a BBL™ dispenser, using aseptic precautions. The remaining (three) plates to be utilized for antifungal properties were also applied with positive and negative controls; however, in this case positive control discs were impregnated with nystatin (available as BBL™ Taxo™ Nystatin Discs Cartridge from BD & Co). Fifteen dry discs (identical to those of positive and negative control discs but with unique identification print on one side, “NY”) were soaked with a solution of Compound A hydrochloride for about 5 minutes. The discs were then carefully transferred (using a sterile forceps) to a sterile empty Petri dish to decant off any excess test solution. Then one disc was applied to each of fifteen plates that were previously applied with positive and negative controls. The approximate loading of compound A was 22 μg/disk. Triplicate plates for each microorganism were assembled together and properly labeled prior to incubation. Plates for antibacterial testing were incubated at 30-35° C. (for 2 days) while for antifungal testing plates were incubated at 24° C. Plates were read for zones of inhibition using Vernier calipers.

Escherichia coli = assay: Agar diffusion antibacterial activity; assay type: cell-based; settings: for Zone of Inhibition (mm) (average of 3 plates): Compound A approx. 22 μg/disk, Gentamicin 10 mcg per disk, 30-35° C., 2 days
Method: as §1

Salmonella typhimurium = assay: Agar diffusion antibacterial activity; assay type: cell-based; settings: for Zone of Inhibition (mm) (average of 3 plates): Compound A approx. 22 μg/disk, Gentamicin 10 mcg per disk, 30-35° C., 2 days
Method: as §1

Staphylococcus aureus = assay: Agar diffusion antibacterial activity; assay type: cell-based; settings: for Zone of Inhibition (mm) (average of 3 plates): Compound A approx. 22 μg/disk, Gentamicin 10 mcg per disk, 30-35° C., 2 days
Method: as §1

[2] = pH solubility profile of Compound A in USP buffers at room temperature; assay type: physicochemical; settings: for Approximate Solubility: room temperature
Method: Testing was conducted using a reciprocating platform shaker (Heidolph® Promax 1020).

[3] = Solubility of Compound A in solvent mixtures; assay type: physicochemical
[4] = Room temperature stability of the 4.20 mg/ml Compound A dosage form (Table 8); assay type: physicochemical
Method: An example of a dosage form containing 4.20 mg/ml of Compound A that is suitable for parenteral (e.g., IM or IV) administration is provided in Table 8. The propylene glycol, PEG-300 and ethanol were added to a volumetric flask and mixed. The acetate buffer pH 5.0 (1M) was then added q.s to volume and the contents of the flask were mixed. Compound A was added to a separate clear dry volumetric flask. Approximately ⅓ of the total propylene glycol, PEG-300 and ethanol mixture was added and the resulting mixture was shaken vigorously for 2 minutes. The remainder of the mixture was then added to the flask to make up the volume. The contents were mixed by gentle shaking or by sonication until a clear solution was obtained. The solution was then filtered through a 0.22μ filter (Millex® GV) using a sterile disposable syringe or vial.

[5] = Room temperature stability of the 1.0 mg/ml parenteral dosage form with L-arginine (Table 10); assay type: physicochemical; settings: for % Assay / pH: 1 mg/ml solution with L-arginine in normal saline (Table 10)
Method: An example of a dosage form containing 1.0 mg/ml of Compound A hydrochloride that is suitable for parenteral (e.g., IM or IV) administration is provided in Table 10. The L-arginine was dissolved in saline and the pH of the solution was adjusted to ˜8.0 using 0.05N HCl. Compound A was then added and the pH of the solution was adjusted to ˜7.40. The solution was then filtered through a 0.22 μm filter.

rats (CD® strain) = assay: Four-week intravenous toxicity study in rats; assay type: in vivo; settings: 9 mg/kg/day, over a period of 28 days
Method: The potential toxicity of an intravenously administered formulation of Compound A (average concentration analysis=95.6%) was studied for four weeks in rats (CD® strain). The vehicle (L-arginine dissolved in saline, 21.7 mg/ml), control (saline solution) and test solutions were administered by an intravenous infusion in the cannulated femoral vein through a dosing port. The dose was administered once per day at approximately the same time (±2 hours) each day throughout the duration of the study. The dose volume was 10 ml/kg per day. All doses were administered using a syringe infusion pump set for the appropriate infusion rate to deliver the proper dose volume over the required infusion duration of 15 minutes. All animals across all groups were examined prior to exposure and all the main study survivors were examined again at the end of study. […] Detailed clinical examinations were made for each animal daily during treatment (approx 30 to 60 minutes post-dosing).

[6] = test system: human peripheral blood lymphocytes (HPBL); assay: In vitro mammalian chromosome aberration test; assay type: cell-based; settings: vehicle DMSO, maximum concentration 5000 μg/ml
Excerpt: [B] In Vitro Mammalian Chromosome Aberration Test
The purpose of this study was to evaluate the clastogenic potential of a test article based upon its ability to induce chromosome aberrations in human peripheral blood lymphocytes (HPBL).
Negative: Test Article Solvent (or Vehicle)
Positive: Mitomycin C (MMC, CAS number 50-07-7)
Cyclophosphamide (CP, CAS number 6055-19-2)

[7] = test system: thymidine kinase locus of L5178Y mouse lymphoma cells; settings: vehicle DMSO, maximum concentration 5000 μg/ml
Method: In vitro genotoxicity studies were conducted as a mouse lymphoma study and a chromosomal aberration test. The vehicle was DMSO and the maximum concentration to be tested was 5000 μg/ml for both studies.
In Vitro Mammalian Cell Gene Mutation Test
(L5178Y/TK^+/− Mouse Lymphoma Assay)
The purpose of this study was to evaluate the genotoxic potential of the test article based on quantitation of forward mutations at the thymidine kinase locus of L5178Y mouse lymphoma cells and the sizing of the resulting colonies.
Negative: Test article solvent (or vehicle)
Positive: Methyl methanesulfonate (MMS)
7,12-dimethylbenz(a)anthracene (DMBA)

[8] = versus Gentamicin (10 mcg per disk)
[9] = pH 7.0 (0.1 M Potassium Phosphate)
[10] = pH 9.0 (0.1 M Potassium phosphate)
[11] = 4.20 mg/ml Compound A in propylene glycol/ethanol/PEG-300/acetate buffer pH 5.0 (Table 8), batches 1-4

## CCO/N=C(\C(=O)N[C@@H]1C(=O)N2C(C(=O)[O-])=C(Sc3nc(-c4cc[n+](C)cc4)cs3)CS[C@H]12)c1nsc(NC(C)=O)n1.Cl [Compound A hydrochloride, (6R,7R)-7-[[(2Z)-2-(ethoxyimino)-2-[5-(acetamido)-1,2,4-thiadiazol-3-yl]acetyl]amino]-3-[[4-(1-methylpyridini-1-ium-4-yl)-1,3-thiazol-2-yl]sulfanyl]-8-oxo-5-thia-1-azabicylo[4.2.0]oct-2-ene-2-carboxylate hydrochloride]
[1]
  antibacterial activity (in words): moderate activity
  Zone of Inhibition (mm) (average of 3 plates): 9.68 mm
Escherichia coli
  Zone of Inhibition (mm) (average of 3 plates): 23.82 mm
Escherichia coli; [8]
  antibacterial activity relative to Gentamicin: 118%
Salmonella typhimurium
  Zone of Inhibition (mm) (average of 3 plates): 21.12 mm
Salmonella typhimurium; [8]
  antibacterial activity relative to Gentamicin: 117%
Staphylococcus aureus
  Zone of Inhibition (mm) (average of 3 plates): 36.71 mm
Staphylococcus aureus; [8]
  antibacterial activity relative to Gentamicin: 173%

## CCO/N=C(\C(=O)N[C@@H]1C(=O)N2C(C(=O)[O-])=C(Sc3nc(-c4cc[n+](C)cc4)cs3)CS[C@H]12)c1nsc(NC(C)=O)n1 [Compound A, (6R,7R)-7-[[(2Z)-2-(ethoxyimino)-2-[5-(acetamido)-1,2,4-thiadiazol-3-yl]acetyl]amino]-3-[[4-(1-methylpyridinium-4-yl)-1,3-thiazol-2-yl]sulfanyl]-8-oxo-5-thia-1-azabicylo[4.2.0]oct-2ene-2-carboxylate]
[2]; pH 1.0 (0.2 M KCl—HCl)
  Description: Solution
  Approximate Solubility: 500 µg/mL
[2]; pH 3.0 (0.1 M Sodium acetate)
  Description: Solution
  Approximate Solubility: 4700 µg/mL
[2]; pH 5.0 (0.05 M Sodium acetate)
  Description: Gel
  Approximate Solubility: 800 µg/mL
[2]; pH 5.0 (0.1 M Sodium acetate)
  Description: Gel
  Approximate Solubility: 400 µg/mL
[2]; pH 5.0 (0.5 M Sodium acetate)
  Description: Gel
  Approximate Solubility: 500 µg/mL
[2]; [9]
  Description: Gel
  Approximate Solubility: 400 µg/mL
[2]; [10]
  Description: Solution
  Approximate Solubility: 13300 µg/mL
[3]; 8% Propylene Glycol, 2% Ethanol, 2% PEG-300, 5% 1-Methyl-2-pyrrolidinone, 83% Acetate buffer pH 5 (1M)
  Approximate Solubility: 2000 µg/mL
[3]; 8% Propylene Glycol, 2% Ethanol, 2% PEG-300, 88% Acetate buffer pH 5 (1M)
  Approximate Solubility: 1800 µg/mL
[3]; 8% Propylene Glycol, 2% Ethanol, 5% Benzyl alcohol, 85% Acetate buffer pH 5 (1M) (first entry, r11)
  Approximate Solubility: 1500 µg/mL
[3]; 8% Propylene Glycol, 2% Ethanol, 5% Benzyl alcohol, 85% Acetate buffer pH 5 (1M) (second entry, r17)
  Approximate Solubility: 3500 µg/mL
[3]; 8% Propylene Glycol, 2% Ethanol, 90% Acetate buffer pH 5 (1M)
  Approximate Solubility: 1500 µg/mL
[3]; 8% Propylene Glycol, 2% PEG-300, 5% Benzyl alcohol, 85% Acetate buffer pH 5 (1M)
  Approximate Solubility: 4000 µg/mL
[3]; 8% Propylene Glycol, 9% PEG-300, 83% Acetate buffer pH 5 (1M)
  Approximate Solubility: 1100 µg/mL
[3]; 10% Sodium benzoate in Normal Saline, pH 6.5
  Approximate Solubility: 4200 µg/mL
[3]; 10% Sodium benzoate in water, pH 6.3
  Approximate Solubility: 4200 µg/mL
[3]; 40% Propylene Glycol, 2.5% Ethanol, 57.5% Acetate buffer pH 5
  Approximate Solubility: 4200 µg/mL
[3]; 60% Propylene Glycol, 2.5% Ethanol, 37.5% Acetate buffer pH 5
  Approximate Solubility: >25000 µg/mL
[3]; Dimethyl sulfoxide (DMSO)
  Approximate Solubility: 212000 µg/mL
[3]; Ethanol
  Approximate Solubility: 1500 µg/mL
[3]; Methanol
  Approximate Solubility: 400000 µg/mL
[3]; Sterile water for injection USP
  Approximate Solubility: 800 µg/mL
[4]; [11]
  Initial Assay (%): 99.2% and 101.3% and 100.5% and 98.5%
  Initial pH: 6.06 and 6.08 and 6.13
[4]; 4.20 mg/ml Compound A solution (Table 8), 3 hrs at RT, batch 4
  Final Assay (%): 96.9 (3 hrs at RT) %
[4]; 4.20 mg/ml Compound A solution (Table 8), 5 hrs at RT, batches 2 and 3
  Final Assay (%): 97.9 (5 hrs at RT) % and 95.6 (5 hrs at RT) %
[4]; 4.20 mg/ml Compound A solution (Table 8), batch 4, 3 hrs at RT
  Final pH: 5.99
[5]; 2 hours
  % Assay: 95.3%
  pH: 7.34
[5]; 4 hours
  % Assay: 95.1%
  pH: 7.41
[5]; Initial
  % Assay: 95.7%
  pH: 7.35
[5]; solution containing 1 mg/ml of Compound A
  stability of the solution (in words): stable
Rats (CD® strain)
  adverse clinical events: did not show any adverse clinical events
[6]
  genotoxicity result, chromosomal aberration study using human lymphocytes: negative
[7]
  genotoxicity result, mouse lymphoma study: negative

## Gentamicin [reference compound]
[1]
  Zone of Inhibition (mm) (average of 3 plates): 20.17 mm
Escherichia coli
  Zone of Inhibition (mm) (average of 3 plates): 20.27 mm
Salmonella typhimurium
  Zone of Inhibition (mm) (average of 3 plates): 18.03 mm
Staphylococcus aureus
  Zone of Inhibition (mm) (average of 3 plates): 21.27 mm
